Source: the NIST ThermoML archive (doi:10.1021/je800925v)

Assay: xn = mol fraction of the nth substance listed
Conditions: Liquid

CCCCCCCCCC [decane] + CCO
Conditions	mass density [kg/m3]	viscosity [mPa·s]
273.15 K, x2 = 0.098	746.5	1.236
273.15 K, x2 = 0.198	748.3	1.257
273.15 K, x2 = 0.301	750.7	1.273
273.15 K, x2 = 0.397	753.8	1.328
273.15 K, x2 = 0.501	757.4	1.429
273.15 K, x2 = 0.602	762.7	1.523
273.15 K, x2 = 0.694	767.4	1.53
273.15 K, x2 = 0.799	774.9	1.565
273.15 K, x2 = 0.905	787.7	1.639
275.65 K, x2 = 0.098	744.6	1.181
275.65 K, x2 = 0.198	746.4	1.2
275.65 K, x2 = 0.301	748.7	1.213
275.65 K, x2 = 0.397	751.8	1.263
275.65 K, x2 = 0.501	755.4	1.351
275.65 K, x2 = 0.602	760.7	1.432
275.65 K, x2 = 0.694	765.4	1.448
275.65 K, x2 = 0.799	772.9	1.486
275.65 K, x2 = 0.905	785.7	1.557
278.15 K, x2 = 0.098	742.7	1.13
278.15 K, x2 = 0.198	744.4	1.148
278.15 K, x2 = 0.301	746.8	1.158
278.15 K, x2 = 0.397	749.9	1.203
278.15 K, x2 = 0.501	753.4	1.281
278.15 K, x2 = 0.602	758.7	1.353
278.15 K, x2 = 0.694	763.3	1.374
278.15 K, x2 = 0.799	770.9	1.412
278.15 K, x2 = 0.905	783.6	1.48
280.65 K, x2 = 0.098	740.8	1.083
280.65 K, x2 = 0.198	742.5	1.099
280.65 K, x2 = 0.301	744.8	1.107
280.65 K, x2 = 0.397	747.9	1.147
280.65 K, x2 = 0.501	751.5	1.217
280.65 K, x2 = 0.602	756.7	1.282
280.65 K, x2 = 0.694	761.3	1.305
280.65 K, x2 = 0.799	768.8	1.344
280.65 K, x2 = 0.905	781.6	1.408
283.15 K, x2 = 0.098	738.9	1.038
283.15 K, x2 = 0.198	740.6	1.053
283.15 K, x2 = 0.301	742.9	1.06
283.15 K, x2 = 0.397	746	1.096
283.15 K, x2 = 0.501	749.5	1.159
283.15 K, x2 = 0.602	754.7	1.219
283.15 K, x2 = 0.694	759.3	1.242
283.15 K, x2 = 0.799	766.8	1.28
283.15 K, x2 = 0.905	779.5	1.341
285.65 K, x2 = 0.098	737	0.9963
285.65 K, x2 = 0.198	738.7	1.01
285.65 K, x2 = 0.301	741	1.015
285.65 K, x2 = 0.397	744	1.048
285.65 K, x2 = 0.501	747.5	1.105
285.65 K, x2 = 0.602	752.7	1.158
285.65 K, x2 = 0.694	757.3	1.183
285.65 K, x2 = 0.799	764.7	1.22
285.65 K, x2 = 0.905	777.4	1.278
288.15 K, x2 = 0.098	735	0.9574
288.15 K, x2 = 0.198	736.7	0.9702
288.15 K, x2 = 0.301	739	0.9738
288.15 K, x2 = 0.397	742	1.003
288.15 K, x2 = 0.501	745.5	1.056
288.15 K, x2 = 0.602	750.6	1.104
288.15 K, x2 = 0.694	755.2	1.128
288.15 K, x2 = 0.799	762.7	1.163
288.15 K, x2 = 0.905	775.3	1.218
290.65 K, x2 = 0.098	733.1	0.9207
290.65 K, x2 = 0.198	734.8	0.9321
290.65 K, x2 = 0.301	737	0.9348
290.65 K, x2 = 0.397	740	0.9608
290.65 K, x2 = 0.501	743.5	1.009
290.65 K, x2 = 0.602	748.6	1.053
290.65 K, x2 = 0.694	753.1	1.076
290.65 K, x2 = 0.799	760.6	1.11
290.65 K, x2 = 0.905	773.3	1.162
293.15 K, x2 = 0	731	0.9133
293.15 K, x2 = 0.098	731.2	0.8862
293.15 K, x2 = 0.198	732.8	0.8973
293.15 K, x2 = 0.301	735.1	0.8982
293.15 K, x2 = 0.397	738	0.9215
293.15 K, x2 = 0.501	741.5	0.966
293.15 K, x2 = 0.602	746.6	1.006
293.15 K, x2 = 0.694	751.1	1.028
293.15 K, x2 = 0.799	758.5	1.061
293.15 K, x2 = 0.905	771.2	1.109
295.65 K, x2 = 0.098	729.4	0.8534
295.65 K, x2 = 0.198	730.9	0.8635
295.65 K, x2 = 0.301	733.1	0.8638
295.65 K, x2 = 0.397	736	0.8848
295.65 K, x2 = 0.501	739.5	0.9255
295.65 K, x2 = 0.602	744.5	0.962
295.65 K, x2 = 0.694	749	0.983
295.65 K, x2 = 0.799	756.5	1.014
295.65 K, x2 = 0.905	769.1	1.06
298.15 K, x2 = 0	727.2	0.8509
298.15 K, x2 = 0.098	727.3	0.823
298.15 K, x2 = 0.198	728.9	0.8318
298.15 K, x2 = 0.301	731.1	0.8314
298.15 K, x2 = 0.397	734	0.8501
298.15 K, x2 = 0.501	737.5	0.8872
298.15 K, x2 = 0.602	742.5	0.9216
298.15 K, x2 = 0.694	747	0.9407
298.15 K, x2 = 0.799	754.4	0.9698
298.15 K, x2 = 0.905	766.9	1.013

CCCCCCCC [octane] + CCO
Conditions	mass density [kg/m3]	viscosity [mPa·s]
273.15 K, x2 = 0.095	713.3	0.6185
273.15 K, x2 = 0.192	715.9	0.6401
273.15 K, x2 = 0.294	719.6	0.698
273.15 K, x2 = 0.399	725.5	0.7603
273.15 K, x2 = 0.496	732.2	0.8635
273.15 K, x2 = 0.602	740.1	0.9516
273.15 K, x2 = 0.691	752	1.103
273.15 K, x2 = 0.807	763.9	1.262
273.15 K, x2 = 0.911	781	1.459
275.65 K, x2 = 0.095	709.2	0.6003
275.65 K, x2 = 0.192	713.9	0.6206
275.65 K, x2 = 0.294	719.5	0.6743
275.65 K, x2 = 0.399	723.4	0.7329
275.65 K, x2 = 0.496	731.5	0.828
275.65 K, x2 = 0.602	738	0.9122
275.65 K, x2 = 0.691	749.9	1.054
275.65 K, x2 = 0.807	761.7	1.203
275.65 K, x2 = 0.911	778.9	1.389
278.15 K, x2 = 0.095	707.2	0.583
278.15 K, x2 = 0.192	711.8	0.6019
278.15 K, x2 = 0.294	717.2	0.652
278.15 K, x2 = 0.399	721.3	0.7069
278.15 K, x2 = 0.496	729.4	0.7951
278.15 K, x2 = 0.602	735.9	0.8751
278.15 K, x2 = 0.691	747.8	1.008
278.15 K, x2 = 0.807	759.7	1.148
278.15 K, x2 = 0.911	776.8	1.323
280.65 K, x2 = 0.095	705.1	0.5664
280.65 K, x2 = 0.192	708.5	0.5841
280.65 K, x2 = 0.294	714.8	0.6308
280.65 K, x2 = 0.399	719.2	0.6822
280.65 K, x2 = 0.496	725.2	0.7643
280.65 K, x2 = 0.602	733.8	0.8399
280.65 K, x2 = 0.691	745.7	0.9555
280.65 K, x2 = 0.807	757.6	1.097
280.65 K, x2 = 0.911	774.7	1.26
283.15 K, x2 = 0.095	703	0.5505
283.15 K, x2 = 0.192	706.4	0.5669
283.15 K, x2 = 0.294	712.5	0.6105
283.15 K, x2 = 0.399	717.1	0.6587
283.15 K, x2 = 0.496	723.1	0.7348
283.15 K, x2 = 0.602	731.7	0.8067
283.15 K, x2 = 0.691	743.6	0.9146
283.15 K, x2 = 0.807	755.4	1.047
283.15 K, x2 = 0.911	772.6	1.202
285.65 K, x2 = 0.095	701	0.5351
285.65 K, x2 = 0.192	704.3	0.5505
285.65 K, x2 = 0.294	710.2	0.5906
285.65 K, x2 = 0.399	715	0.6363
285.65 K, x2 = 0.496	723.1	0.707
285.65 K, x2 = 0.602	729.6	0.7758
285.65 K, x2 = 0.691	741.5	0.8763
285.65 K, x2 = 0.807	753.3	1.002
285.65 K, x2 = 0.911	770.5	1.147
288.15 K, x2 = 0.095	698.9	0.5207
288.15 K, x2 = 0.192	702.2	0.5347
288.15 K, x2 = 0.294	708.1	0.5721
288.15 K, x2 = 0.399	712.9	0.615
288.15 K, x2 = 0.496	721	0.6805
288.15 K, x2 = 0.602	727.5	0.7453
288.15 K, x2 = 0.691	739.4	0.8411
288.15 K, x2 = 0.807	751.2	0.958
288.15 K, x2 = 0.911	768.4	1.095
290.65 K, x2 = 0.095	696.8	0.5072
290.65 K, x2 = 0.192	700.1	0.5195
290.65 K, x2 = 0.294	705.9	0.5541
290.65 K, x2 = 0.399	710.8	0.5946
290.65 K, x2 = 0.496	718.9	0.6543
290.65 K, x2 = 0.602	725.3	0.7168
290.65 K, x2 = 0.691	737.2	0.8071
290.65 K, x2 = 0.807	749.1	0.9164
290.65 K, x2 = 0.911	766.3	1.046
293.15 K, x2 = 0	705.6	0.5374
293.15 K, x2 = 0.095	694.7	0.4931
293.15 K, x2 = 0.192	698	0.5049
293.15 K, x2 = 0.294	703.8	0.5366
293.15 K, x2 = 0.399	708.6	0.5752
293.15 K, x2 = 0.496	716.8	0.6298
293.15 K, x2 = 0.602	723.2	0.6899
293.15 K, x2 = 0.691	735.1	0.7742
293.15 K, x2 = 0.807	746.9	0.8781
293.15 K, x2 = 0.911	764.1	0.9997
295.65 K, x2 = 0.095	692.6	0.4796
295.65 K, x2 = 0.192	695.9	0.4908
295.65 K, x2 = 0.294	701.7	0.5197
295.65 K, x2 = 0.399	706.5	0.5566
295.65 K, x2 = 0.496	714.7	0.6039
295.65 K, x2 = 0.602	721.1	0.6643
295.65 K, x2 = 0.691	732.9	0.7428
295.65 K, x2 = 0.807	744.7	0.8415
295.65 K, x2 = 0.911	762	0.956
298.15 K, x2 = 0	701.6	0.5087
298.15 K, x2 = 0.095	690.5	0.4675
298.15 K, x2 = 0.192	693.8	0.477
298.15 K, x2 = 0.294	699.6	0.5022
298.15 K, x2 = 0.399	704.3	0.5386
298.15 K, x2 = 0.496	712.6	0.5828
298.15 K, x2 = 0.602	718.9	0.6396
298.15 K, x2 = 0.691	730.8	0.7137
298.15 K, x2 = 0.807	742.6	0.8061
298.15 K, x2 = 0.911	759.8	0.925
